Patent US20260001886A1, “ENPP1 INHIBITORS I” (RE Ventures I, LLC, priority 2024, published 2026)
Read-outs that look alike come from different tables or passages of the source.

How the values were obtained:
Alpl^Prx1 mouse = test: In vivo Model 1: Alpl^Prx1 mouse model of hypophosphatasia (HPP)
Procedure: Bone tissues were fixed in 4% PFA.
PPi levels were measured using a standard method involving ATPsulfurylase. […] ATP converted from PPi in the samples was mixed with BacTiter-Glo (Promega) and luminescence was quantified in duplicated reactions using a iD3X plate reader (Molecular Device). Values obtained from reactions without ATPsulfurylase were subtracted to eliminate ATP which possibly existed in the plasma samples.
Plasma chemistry was performed using Vetscan VS2 analyzer with Comprehensive Diagnostic Profiles rotor (Abaxis). […] Mouse OPN was measured with Quantikine®-ELISA kit (R&D).
Radiographic images were obtained by using XPERT 80-Kubtec Scientific.
Three stained sections per mouse were analyzed by Keyence microscope to obtain an average value of mineralized area. Five mice per genotype were used (n=5).

[1] = target: ENPP1 expressed by MCF-7 cells (Homo sapiens (Human), UniProt P22413); test: cell-based
Procedure: ENPP1 inhibition was assessed in a human cellular co-culture assay using THP1-Dual interferon reporter cells from InvivoGen (Cat No. thpd-nfis), see Goswami et al., 2022, and MCF-7 cancer cells.
MCF-7 cells were seeded at 10,000 cells/well in a 96 well plate and 24 h later compounds were added in DMEM+GlutaMAX media+2% Hyclone FBS, with a final DMSO of 0.2%. 2′3′-cGAMP was added at a final concentration of 10 μM and incubated for 30 mins at 37° C. 20,000 THP-1 cells were added per well and incubated for 48 h. IFN response was measured by Quanti-Luc Gold according to the manufacturer's instructions using 15 μL Quanti-Luc Gold per well. Luminescence was measured on an EnSight reader (PerkinElmer).

Human ENPP1 [2] = target: T1, Human ENPP1 (Homo sapiens (Human), UniProt P22413)
Procedure: (§1) ENPP1 catalyses the hydrolysis of ATP into AMP+PPi. AMP production was monitored using Bellbrooks Transcreener AMP/GMP TR-FRET assay kit (Cat No. 3020-10K) according to the manufacturer's instructions. The assay was run with 50 mM Tris pH 7.5, 5 mM MgCl2, 150 mM NaCl, 0.005% Tween20 and distilled H2O. Antibody and tracer were diluted to 2 nM. […] Mouse ENPP1 was run at 15 pM with ATP at 400 nM. AMP produced in the assay by ENPP1 activity competes with a far-red tracer labelled AMP bound to an AMP specific antibody resulting in a decrease in TR-FRET. ENPP1 inhibition reduces AMP production and increases the TR-FRET signal.

human CA-I (CA1) [3] = target: T2, human CA-I (CA1) (Homo sapiens (Human), UniProt P00915); test: biochemical
Procedure: (§2) Cytiva Biacore S200, T200 and 3000 machines were used for all SPR experiments. […] For carbonic anhydrases, data were collected at a constant temperature of 25° C. Human CA-I (CA1) or human CA-II (CA2) was captured via standard EDC/NHS protocol on a Biacore CM5 chip using standard protocols in HBS-N buffer (10 mM HEPES (pH 7.4), 150 mM NaCl) at ˜2000 RU. The experiments were run in PBS buffer containing 0.05% Tween 20 and 3% DMSO. All compounds were initially screened at concentrations ranging from 23 nM to 50 µM or 4.6 nM to 10 µM, injecting from the lowest to highest concentrations and adjusting appropriately for each compound for repeat experiments. Scrubber 2 (Biologic software) was used to process and analyse SPR data. […] Data for the inhibitors were referenced to those for a blank surface and blank injections to normalise for non-specific binding and drift. A DMSO calibration was run to remove excluded volume effect of binding responses between reference and target surface.

human CA-II (CA2) [4] = target: T3, human CA-II (CA2) (Homo sapiens (Human), UniProt P00918); test: biochemical
Procedure: as §2

Human ENPP1 [5] = target: T1, Human ENPP1; test: biochemical
Procedure: as §1

human CA-I (CA1) [6] = target: T2, human CA-I (CA1); test: Surface plasmon resonance, carbonic anhydrase I; settings: 25° C., CM5 chip
Procedure: as §2

human CA-II (CA2) [7] = target: T3, human CA-II (CA2); test: Surface plasmon resonance, carbonic anhydrase II; settings: 25° C., CM5 chip
Procedure: as §2

[8] = oral in diet, after 100 days of dosing

T1 sequence (P22413 whole entry): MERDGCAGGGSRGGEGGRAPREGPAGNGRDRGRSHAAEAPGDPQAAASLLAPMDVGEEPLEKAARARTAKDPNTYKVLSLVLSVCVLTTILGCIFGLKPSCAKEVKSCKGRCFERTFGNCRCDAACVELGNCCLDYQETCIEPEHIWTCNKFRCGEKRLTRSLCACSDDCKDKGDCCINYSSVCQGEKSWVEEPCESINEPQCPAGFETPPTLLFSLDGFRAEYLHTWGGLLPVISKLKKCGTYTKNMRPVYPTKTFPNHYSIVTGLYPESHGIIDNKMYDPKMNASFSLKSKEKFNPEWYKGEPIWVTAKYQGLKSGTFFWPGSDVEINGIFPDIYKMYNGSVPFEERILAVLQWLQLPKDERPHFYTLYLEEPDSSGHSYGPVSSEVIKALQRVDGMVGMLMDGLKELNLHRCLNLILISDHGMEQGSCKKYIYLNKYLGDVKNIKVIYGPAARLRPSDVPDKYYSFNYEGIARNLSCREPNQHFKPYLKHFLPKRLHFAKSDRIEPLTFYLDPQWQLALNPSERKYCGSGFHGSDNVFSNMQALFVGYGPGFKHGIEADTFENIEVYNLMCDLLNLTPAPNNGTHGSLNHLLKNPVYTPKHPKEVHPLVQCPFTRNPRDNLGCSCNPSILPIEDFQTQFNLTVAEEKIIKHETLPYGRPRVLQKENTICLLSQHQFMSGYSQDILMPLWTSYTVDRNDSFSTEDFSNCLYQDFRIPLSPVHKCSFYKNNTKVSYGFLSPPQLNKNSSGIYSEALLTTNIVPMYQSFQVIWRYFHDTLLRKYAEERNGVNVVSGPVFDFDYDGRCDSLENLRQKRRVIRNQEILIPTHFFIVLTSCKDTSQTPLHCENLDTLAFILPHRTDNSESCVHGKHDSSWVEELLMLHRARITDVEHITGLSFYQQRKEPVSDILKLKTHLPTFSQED
Chain of ENPP1 expressed by MCF-7 cells (P22413 whole entry): as above
T2 sequence (P00915 whole entry): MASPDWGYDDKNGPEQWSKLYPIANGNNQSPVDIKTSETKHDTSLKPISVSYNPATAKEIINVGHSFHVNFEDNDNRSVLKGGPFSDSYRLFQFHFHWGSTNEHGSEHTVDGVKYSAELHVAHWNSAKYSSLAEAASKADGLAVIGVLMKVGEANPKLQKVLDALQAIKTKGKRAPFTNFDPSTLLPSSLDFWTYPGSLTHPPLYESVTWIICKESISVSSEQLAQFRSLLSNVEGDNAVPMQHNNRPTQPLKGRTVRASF

Structure (SMILES)	EC50 [1] [µM]	EC50 (Human ENPP1 [2]) [µM]	Kd (human CA-I (CA1) [3]) [µM]	Kd (human CA-II (CA2) [4]) [µM]	further results
CC(C)c1cn(Cc2ccc(S(N)(=O)=O)cc2)c2nc(C3CC3)nn2c1=O [Compound 11, 4-((2-cyclopropyl-6-isopropyl-7-oxo-[1,2,4]triazolo[1,5-a]pyrimidin-4(7H)-yl)methyl)benzenesulfonamide]					Bone mineralization of the bone cortex (X-ray, tibia / knee joints) (Alpl^Prx1 mouse; male and female mice, oral in diet, 100 days): increased bone mineralization; Plasma chemistry (significant changes; transaminase, amylase, BUN, Ca) (Alpl^Prx1 mouse; male mice, WT, control and treated): only observed between WT and HPP mice; Mineralization of L3 vertebrate bone (bone morphometry, Von Kossa) (Alpl^Prx1 mouse; oral in diet, 100 days): increased to the levels of wild-type mice; Mineralization of trabecular bones of the distal femur (bone morphometry, Von Kossa) (Alpl^Prx1 mouse; oral in diet, 100 days): slight improvement in mineralization; Plasma AP levels (Alpl^Prx1 mouse; [8]): did not affect; Plasma OPN levels (Alpl^Prx1 mouse; [8]): did not affect; Plasma PPi levels (Alpl^Prx1 mouse; [8]): reduced to the levels of WT mice
CCc1nc2n(Cc3ccc(S(C)(=N)=O)cc3)cc(C(C)C)c(=O)n2n1 (racemic) [31 Rac]			> 100000	> 100000	
Cc1cc2n(Cc3ccc(S(C)(=N)=O)cc3)cc(C(C)C)c(=O)n2n1 (single isomer, unassigned) [Compound 9A]			> 100000	> 100000	
CCc1nc2n(Cc3ccc([S@](C)(=N)=O)cc3)cc(C(C)C)c(=O)n2n1 (single isomer, unassigned) [Compound 31B]			> 100000	> 100000	
CC(C)c1cn(Cc2ccc([S@](C)(=N)=O)c(F)c2)c2cc(C3CC3)nn2c1=O (single isomer, unassigned) [Compound 72]	0.2	0.00251			
Cc1cc(Cn2cc(C(C)C)c(=O)n3nc(C4CC4)nc23)ccc1[S@](C)(=N)=O (single isomer, unassigned) [Compound 65]	0.0398	0.00158			
CC(C)c1cn(Cc2ccc(S(C)(=N)=O)cc2)c2nc(CC(F)(F)F)nn2c1=O (racemic) [32 Rac]			> 100000	> 100000	EC50 (Human ENPP1 [5]): 0.00794 µM
CC(C)c1cn(C[C@H]2C[C@H]3C[C@@H]2CN3S(N)(=O)=O)c2nc(C(F)(F)F)nn2c1=O (racemic) [Compound 36, rac-(1R,4R,5R)-5-((6-isopropyl-7-oxo-2-(trifluoromethyl)-[1,2,4]triazolo[1,5-a]pyrimidin-4(7H)-yl)methyl)-2-azabicyclo[2.2.1]heptane-2-sulfonamide]			> 100000		
CC(C)c1cn(Cc2ccc(S(N)(=O)=O)c(-c3ccccc3)n2)c2nc(C3CC3)nn2c1=O [Compound 27, 6-((2-cyclopropyl-6-isopropyl-7-oxo-[1,2,4]triazolo[1,5-a]pyrimidin-4(7H)-yl)methyl)-2-phenylpyridine-3-sulfonamide]	0.251	0.00631			CA1 human SPR pKD (human CA-I (CA1) [6]): 3.0; CA2 human SPR pKD (human CA-II (CA2) [7]): 3.0
Cc1cc(Cn2cc(C(C)C)c(=O)n3nc(C4CC4)cc23)ccc1S(C)(=N)=O (racemic) [58 Rac]			> 100000		EC50 (Human ENPP1 [5]): 0.002 µM
CC(C)c1nc2n(Cc3ccc(S(C)(=N)=O)cc3)cc(C(C)C)c(=O)n2n1 (stereo not drawn) [Compound 30, 2,6-diisopropyl-4-(4-(S-methylsulfonimidoyl)benzyl)-[1,2,4]triazolo[1,5-a]pyrimidin-7(4H)-one]	0.0794	0.00398			CA1 human SPR pKD (human CA-I (CA1) [6]): <1; CA2 human SPR pKD (human CA-II (CA2) [7]): <1
Cc1cc(Cn2cc(C(C)C)c(=O)n3nc(C4CC4)nc23)ccc1S(C)(=N)=O (stereo not drawn) [Compound 71, 2-Cyclopropyl-6-isopropyl-4-(3-methyl-4-(S-methylsulfonimidoyl)benzyl)-[1,2,4]triazolo[1,5-a]pyrimidin-7(4H)-one]	0.251	0.00316			

The next lines start with results.

EC50 [1] [µM]	EC50 (Human ENPP1 [2]) [µM]	Kd (human CA-I (CA1) [3]) [µM]	Kd (human CA-II (CA2) [4]) [µM]	Structure (SMILES)	further results
0.0251	0.000316			CC(C)c1cn(Cc2ccc([S@@](=N)(=O)C3CC3)cc2)c2nc(C3CC3)nn2c1=O (single isomer, unassigned) [Compound 55]	
0.0398	0.001			CC[S@](=N)(=O)c1ccc(Cn2cc(C(C)C)c(=O)n3nc(C4CC4)nc23)cc1 (single isomer, unassigned) [Compound 56A]	
0.0794		> 100000	> 100000	CC(C)c1cn(Cc2ccc(S(C)(=N)=O)cc2)c2nc(CC(F)(F)F)nn2c1=O (single isomer, unassigned) [Compound 32A]	EC50 (Human ENPP1 [5]): 0.00631 µM
		> 100000	> 100000	CCc1nc2n(Cc3ccc([S@@](C)(=N)=O)cc3)cc(C(C)C)c(=O)n2n1 (single isomer, unassigned) [Compound 31A]	
			31.6	CCS(=N)(=O)c1ccc(Cn2cc(C(C)C)c(=O)n3nc(C4CC4)nc23)cc1 (racemic) [56 Rac]	EC50 (Human ENPP1 [5]): 0.00251 µM
		> 100000	> 100000	CC(C)c1cn(Cc2ccc([S@@](C)(=N)=O)cc2)c2nc(CC(F)(F)F)nn2c1=O (single isomer, unassigned) [Compound 32B]	
		> 100000		CC(C)c1cn(C[C@@H]2C[C@@H]3C[C@H]2CN3S(N)(=O)=O)c2ncnn2c1=O [Compound 37, (1R,4R,5R)-5-((6-isopropyl-7-oxo-[1,2,4]triazolo[1,5-a]pyrimidin-4(7H)-yl)methyl)-2-azabicyclo[2.2.1]heptane-2-sulfonamide]	
0.2	0.00126			Cc1cc(Cn2cc(C(C)C)c(=O)n3nc(C4CC4)cc23)ccc1[S@@](C)(=N)=O (single isomer, unassigned) [Compound 58A]	
		> 100000	> 100000	Cc1cc2n(Cc3ccc(S(C)(=N)=O)cc3)cc(C(C)C)c(=O)n2n1 (racemic) [9 Rac]	
0.0398	0.00126			CC(C)c1cn(Cc2ccc(S(=N)(=O)C3CC3)cc2)c2nc(C3CC3)nn2c1=O (stereo not drawn) [Compound 54, 4-(4-(Cyclopropanesulfonimidoyl)benzyl)-2-cyclopropyl-6-isopropyl-[1,2,4]triazolo[1,5-a]pyrimidin-7(4H)-one]	
